The results in this text go back to ChEMBL document CHEMBL1154915, “Selection of inhibitory peptides for Aurora-A kinase from a phage-displayed library of helix-loop-helix peptides” (Bioorg Med Chem Lett, 2010).

The experiment deals with T1, Aurora kinase A (Homo sapiens) (UniProt O14965).
T1 sequence (whole entry): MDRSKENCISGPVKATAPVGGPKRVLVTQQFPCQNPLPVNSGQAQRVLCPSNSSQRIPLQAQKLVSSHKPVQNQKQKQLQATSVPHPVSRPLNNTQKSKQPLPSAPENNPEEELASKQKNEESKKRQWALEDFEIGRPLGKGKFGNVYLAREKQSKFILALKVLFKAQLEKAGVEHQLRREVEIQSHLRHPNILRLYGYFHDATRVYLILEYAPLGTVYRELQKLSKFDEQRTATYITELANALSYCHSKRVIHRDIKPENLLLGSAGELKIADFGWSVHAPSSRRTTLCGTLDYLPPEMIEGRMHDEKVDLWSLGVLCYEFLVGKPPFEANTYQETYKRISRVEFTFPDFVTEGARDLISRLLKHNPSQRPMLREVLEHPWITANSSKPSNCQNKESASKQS
Description: Binding affinity to GST-tagged Aurora A after 1 hr by ELISA. In general terms: In an ELISA, binding on a coated surface is turned into a signal by an enzyme label.

Activity calls are given as the source filed them. How the calls were made is not given here.

With `CC(C)C[C@H](NC(=O)[C@H](C)NC(=O)[C@H](C)NC(=O)[C@H](CC(C)C)NC(=O)[C@H](CCC(=O)O)NC(=O)[C@H](C)NC(=O)[C@H](CCC(=O)O)NC(=O)[C@H](CC(C)C)NC(=O)[C@H](C)NC(=O)[C@H](C)NC(=O)[C@H](CC(C)C)NC(=O)[C@H](CCC(=O)O)NC(=O)[C@@H](C)N)C(=O)N[C@@H](CCC(=O)O)C(=O)NCC(=O)N[C@@H](CCCNC(=N)N)C(=O)N1CCC[C@H]1C(=O)N[C@@H](Cc1ccccc1)C(=O)N[C@@H](Cc1c[nH]c2ccccc12)C(=O)N[C@@H](CC(C)C)C(=O)N[C@@H](CC(=O)O)C(=O)N[C@@H](CCCNC(=N)N)C(=O)N[C@@H](CC(C)C)C(=O)N[C@@H](CC(C)C)C(=O)NCC(=O)N[C@@H](CCCCN)C(=O)N[C@@H](CC(C)C)C(=O)N[C@@H](C)C(=O)N[C@@H](C)C(=O)N[C@@H](CC(C)C)C(=O)N[C@@H](CCCCN)C(=O)N[C@@H](C)C(=O)N[C@@H](CCCCN)C(=O)N[C@@H](CC(C)C)C(=O)N[C@@H](C)C(=O)N[C@@H](C)C(=O)N[C@@H](CC(C)C)C(=O)N[C@@H](CCCCN)C(=O)N[C@@H](C)C(=O)O`, the outcome was Active.
As to `CC(C)C[C@H](NC(=O)[C@H](C)NC(=O)[C@H](C)NC(=O)[C@H](CC(C)C)NC(=O)[C@H](CCC(=O)O)NC(=O)[C@H](C)NC(=O)[C@H](CCC(=O)O)NC(=O)[C@H](CC(C)C)NC(=O)[C@H](C)NC(=O)[C@H](C)NC(=O)[C@H](CC(C)C)NC(=O)[C@H](CCC(=O)O)NC(=O)[C@@H](C)N)C(=O)N[C@@H](CCC(=O)O)C(=O)NCC(=O)N[C@H](C(=O)N[C@@H](CC(C)C)C(=O)N[C@H](C(=O)N[C@H](C(=O)N[C@@H](CO)C(=O)N[C@@H](Cc1c[nH]c2ccccc12)C(=O)N[C@@H](CC(=O)O)C(=O)N1CCC[C@H]1C(=O)N[C@@H](Cc1c[nH]c2ccccc12)C(=O)NCC(=O)N[C@@H](CCCCN)C(=O)N[C@@H](CC(C)C)C(=O)N[C@@H](C)C(=O)N[C@@H](C)C(=O)N[C@@H](CC(C)C)C(=O)N[C@@H](CCCCN)C(=O)N[C@@H](C)C(=O)N[C@@H](CCCCN)C(=O)N[C@@H](CC(C)C)C(=O)N[C@@H](C)C(=O)N[C@@H](C)C(=O)N[C@@H](CC(C)C)C(=O)N[C@@H](CCCCN)C(=O)N[C@@H](C)C(=O)O)C(C)C)C(C)C)[C@H](C)O`, the result was Active.
Take `CC(C)C[C@H](NC(=O)[C@H](C)NC(=O)[C@H](C)NC(=O)[C@H](CC(C)C)NC(=O)[C@H](CCC(=O)O)NC(=O)[C@H](C)NC(=O)[C@H](CCC(=O)O)NC(=O)[C@H](CC(C)C)NC(=O)[C@H](C)NC(=O)[C@H](C)NC(=O)[C@H](CC(C)C)NC(=O)[C@H](CCC(=O)O)NC(=O)[C@H](C)N)C(=O)N[C@@H](CCC(=O)O)C(=O)NCC(=O)N[C@@H](CCCNC(=N)N)C(=O)N[C@@H](CCCCN)C(=O)N[C@@H](CC(=O)O)C(=O)N[C@@H](Cc1ccc(O)cc1)C(=O)N[C@@H](Cc1ccccc1)C(=O)N[C@@H](Cc1cnc[nH]1)C(=O)N[C@@H](CC(C)C)C(=O)N[C@@H](Cc1c[nH]c2ccccc12)C(=O)N[C@@H](Cc1cnc[nH]1)C(=O)N[C@@H](CC(=O)O)C(=O)NCC(=O)N[C@@H](CCCCN)C(=O)N[C@@H](CC(C)C)C(=O)N[C@@H](C)C(=O)N[C@@H](C)C(=O)N[C@@H](CC(C)C)C(=O)N[C@@H](CCCCN)C(=O)N[C@@H](C)C(=O)N[C@H](CCCCN)C(=O)N[C@H](CC(C)C)C(=O)N[C@H](C)C(=O)N[C@H](C)C(=O)N[C@H](CC(C)C)C(=O)N[C@H](CCCCN)C(=O)N[C@H](C)C(=O)O`: the outcome was Active.
Take `CC[C@H](C)[C@H](NC(=O)[C@H](CCCNC(=N)N)NC(=O)CNC(=O)[C@H](CC(C)C)NC(=O)[C@H](CC(C)C)NC(=O)[C@@H]1CCCN1C(=O)[C@H](CO)NC(=O)[C@H](Cc1c[nH]c2ccccc12)NC(=O)CNC(=O)[C@H](CCC(=O)O)NC(=O)[C@H](CC(C)C)NC(=O)[C@H](C)NC(=O)[C@H](C)NC(=O)[C@H](CC(C)C)NC(=O)[C@H](CCC(=O)O)NC(=O)[C@H](C)NC(=O)[C@H](CCC(=O)O)NC(=O)[C@H](CC(C)C)NC(=O)[C@H](C)NC(=O)[C@H](C)NC(=O)[C@H](CC(C)C)NC(=O)[C@H](CCC(=O)O)NC(=O)[C@@H](C)N)C(=O)N[C@@H](CC(C)C)C(=O)NCC(=O)N[C@@H](CCCCN)C(=O)N[C@@H](CC(C)C)C(=O)N[C@@H](C)C(=O)N[C@@H](C)C(=O)N[C@@H](CC(C)C)C(=O)N[C@@H](CCCCN)C(=O)N[C@@H](C)C(=O)N[C@@H](CCCCN)C(=O)N[C@@H](CC(C)C)C(=O)N[C@@H](C)C(=O)N[C@@H](C)C(=O)N[C@@H](CC(C)C)C(=O)N[C@@H](CCCCN)C(=O)N[C@@H](C)C(=O)O`: the outcome was Active.
`CC[C@H](C)[C@H](NC(=O)[C@H](CCCNC(=N)N)NC(=O)[C@H](CCCNC(=N)N)NC(=O)[C@H](CO)NC(=O)[C@H](C)NC(=O)CNC(=O)[C@H](CCC(=O)O)NC(=O)[C@H](CC(C)C)NC(=O)[C@H](C)NC(=O)[C@H](C)NC(=O)[C@H](CC(C)C)NC(=O)[C@H](CCC(=O)O)NC(=O)[C@H](C)NC(=O)[C@H](CCC(=O)O)NC(=O)[C@@H]1CCCN1C(=O)[C@H](C)NC(=O)[C@H](C)NC(=O)[C@H](CC(C)C)NC(=O)[C@H](CCC(=O)O)NC(=O)[C@@H](C)N)C(=O)N[C@@H](CS)C(=O)N[C@@H](CS)C(=O)N[C@@H](CO)C(=O)N[C@@H](Cc1c[nH]c2ccccc12)C(=O)NCC(=O)N[C@@H](CCCCN)C(=O)N[C@@H](CC(C)C)C(=O)N[C@@H](C)C(=O)N[C@@H](C)C(=O)N[C@@H](CC(C)C)C(=O)N[C@@H](CCCCN)C(=O)N[C@@H](C)C(=O)N[C@@H](CCCCN)C(=O)N[C@@H](CC(C)C)C(=O)N[C@@H](C)C(=O)N[C@@H](C)C(=O)N[C@@H](CC(C)C)C(=O)N[C@@H](CCCCN)C(=O)N[C@@H](C)C(=O)O`: the outcome was Active.
For the compound `CSCC[C@H](NC(=O)[C@@H]1CCCN1C(=O)[C@H](CCC(N)=O)NC(=O)[C@H](CO)NC(=O)CNC(=O)[C@H](Cc1c[nH]c2ccccc12)NC(=O)CNC(=O)[C@H](CCC(=O)O)NC(=O)[C@H](CC(C)C)NC(=O)[C@H](C)NC(=O)[C@H](C)NC(=O)[C@H](CC(C)C)NC(=O)[C@H](CCC(=O)O)NC(=O)[C@H](C)NC(=O)[C@H](CCC(=O)O)NC(=O)[C@H](CC(C)C)NC(=O)[C@H](C)NC(=O)[C@H](C)NC(=O)[C@H](CC(C)C)NC(=O)[C@H](CCC(=O)O)NC(=O)[C@@H](C)N)C(=O)N[C@@H](CC(=O)O)C(=O)N[C@@H](CO)C(=O)N[C@H](C(=O)NCC(=O)N[C@@H](CCCCN)C(=O)N[C@@H](CC(C)C)C(=O)N[C@@H](C)C(=O)N[C@@H](C)C(=O)N[C@@H](CC(C)C)C(=O)N[C@@H](CCCCN)C(=O)N[C@@H](C)C(=O)N[C@@H](CCCCN)C(=O)N[C@@H](CC(C)C)C(=O)N[C@@H](C)C(=O)N[C@@H](C)C(=O)N[C@@H](CC(C)C)C(=O)N[C@@H](CCCCN)C(=O)N[C@@H](C)C(=O)O)C(C)C`, the result was Active.
